Assay results published in patent US12552790B2, “Positive modulators of the muscarinic acetylcholine receptor M4” (Vanderbilt University, priority 2023, dated 2026).
Where two headings read alike, the source gives them in different places.

Experiments:
hM4 = target: T1, hM4 (Homo sapiens, UniProt P08173); experiment: Cellular cAMP Gi HTRF assay in CHO cells, agonist and potentiator modes; type: cell-based
T1 construct: expressed in transfected cells; host or cells: CHO cells stably expressing human M4 (G418 selection only)
T1 sequence (P08173 1-479): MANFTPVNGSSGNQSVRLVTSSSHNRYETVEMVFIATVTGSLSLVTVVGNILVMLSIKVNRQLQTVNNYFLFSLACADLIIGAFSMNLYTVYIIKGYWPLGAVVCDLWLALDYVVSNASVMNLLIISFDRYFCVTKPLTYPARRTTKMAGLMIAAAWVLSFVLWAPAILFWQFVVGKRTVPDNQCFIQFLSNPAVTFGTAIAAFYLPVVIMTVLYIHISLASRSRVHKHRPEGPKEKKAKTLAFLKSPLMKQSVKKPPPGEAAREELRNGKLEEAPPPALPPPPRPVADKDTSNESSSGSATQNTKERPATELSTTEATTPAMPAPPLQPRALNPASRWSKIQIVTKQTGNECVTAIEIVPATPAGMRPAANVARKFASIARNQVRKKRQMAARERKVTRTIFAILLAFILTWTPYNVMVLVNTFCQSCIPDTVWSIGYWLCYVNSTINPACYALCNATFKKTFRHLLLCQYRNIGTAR
Excerpt: Activation of the M4 receptor leads to the inhibition of cAMP production by coupling to Gi/o proteins. To measure the level of cAMP inhibition by M4 allosteric modulators, a Homogeneous Time-Resolved Fluorescence (HTRF®) cAMP assay was employed using CHO cells stably expressing human or rat M4 receptors. The HTRF cAMP assay is a Time-Resolved Resonance Energy Transfer (TR-FRET) competitive immunoassay. Endogenous intracellular cAMP generated by cells competes with Europium cryptate-labeled cAMP (Europium donor, emission […]) for the binding to a cAMP antibody labeled with d2 (d2-acceptor, emission […]). Thus, the fluorescence emission ratio (665 nm/620 nm) is inversely proportional to the cAMP amount in the cells. Compound-mediated M4 activation results in an increase in HTRF ratio (665 nm/620 nm), indicative of a decrease in intracellular cAMP level. To monitor agonist activity, compounds were added to the M4 cells in the presence of an EC80 concentration of forskolin (adenylyl cyclase activator) which induces a submaximal intracellular cAMP level. To assess potentiator activity, compounds were added to the M4 cells with an EC80 concentration of forskolin in the presence of an EC20 concentration of acetylcholine. This functional assay allows determination of the potency and efficacy of compounds directly activating or potentiating the Gi/o-coupled M4 receptor; representative data are shown in Table 3.
Functional agonist and potentiator activities of compounds were determined by measuring cAMP levels in Chinese Hamster Ovary (CHO) cells stably expressing human or rat M4 muscarinic receptors using an HTRF cAMP Gi/o kit. Cells were maintained in F12 medium containing 10% FBS, 20 mM HEPES, 1× Antibiotic/Antimycotic, and G418 (500 μg/ml) in 37° C. humidified incubators in the presence of 5% CO2. The day before assay, the cells were trypsinized and resuspended in plating medium (growth medium without G418). The cells were plated to white, solid, flat-bottomed, 384 well plates at densities of 4,000 and 6,000 cells/[…]/well, of human M4 and rat M4 cells, respectively. The cell plates were spun at 100×g for 1 min, then immediately placed in a 37° C. incubator in the presence of 5% CO2 overnight.
The next day, reagents were freshly diluted at a 2× concentration in assay buffer using F12 basal medium or stimulation buffer. All assay buffers contained 500 μM IBMX to block cAMP degradation. Activation of M4 by compounds was examined in cells stimulated with an EC80 concentration of forskolin to induce submaximal intracellular cAMP levels. Forskolin EC80 concentrations were determined from forskolin concentration response curves (CRCs) and ranged from 1.5 to 2.5 μM. Compounds (10 mM) were prepared in 100% DMSO and further serially diluted either 1:3 or 1:5 into a […] CRC in DMSO using a Bravo Liquid Handler in a 384 well microplate.
Agonist assay mode was used to assess the abilities of M4 compounds to directly activate M4 receptors in the absence of the agonist, acetylcholine. The 10-point serially diluted compounds, starting 30 μM as a final concentration, were transferred to a compound plate using an Echo plate reformat protocol. 2× assay buffer containing an EC80 concentration of forskolin concentration was added to the compound plate. Vehicle (1% DMSO) was added to the following control wells; baseline cAMP (no forskolin), forskolin max, and forskolin EC80. 10 μL/well of the prepared 2× assay buffer was immediately added to the cell plates using a Bravo 384 well tip liquid handler. The cell plates were immediately spun for 30 seconds at 100×g and incubated at 37° C. for 10 min with gentle shaking at 50 rpm. An acetylcholine CRC was also performed in the presence of an EC80 concentration of forskolin to determine the concentrations of acetylcholine inducing maximal (ECmax) and submaximal (EC20) cAMP inhibition in order to prepare for the subsequent potentiator mode assay. […]

[1] = system: 68 primary molecular targets; experiment: Eurofins LeadProfilingScreen (binding); settings: 10 μM (binding), 68 targets
Excerpt: The screen includes 68 primary molecular targets, including several CNS targets recommended by the EMEA to evaluate drug dependence potential.

MDCK-MDR1 = MDCK-MDR1 efflux ratio and permeability; type: in vitro ADME; settings: efflux ratio
Excerpt: (§1) Compounds may be tested in in vitro assays to investigate both metabolism and pharmacokinetics. These assays may be performed according to known methods as generally described in the following references: Conde-Ceide et al. ACS Med. Chem. Lett. 2015, 6, 716-720; Morris et al. J. Med. Chem. 2014, 57, 10192-10197; and Bubser et al. ACS Chem. Neurosci. 2014, 5, 920-942.

[2] = MDCK-MDR1 efflux ratio and permeability; type: in vitro ADME; settings: dog, MDCK-MDR1
Excerpt: as §1

[3] = agonist mode, forskolin EC80, no acetylcholine
[4] = agonist mode, forskolin EC80, no acetylcholine, read-out: hM4_cAMP Activity Agonist EC50
[5] = potentiator mode, forskolin EC80 plus ACh EC20
[6] = potentiator mode, forskolin EC80 plus ACh EC20, read-out: hM4_cAMP Activity PAM EC50

Row | SMILES | hM4_cAMP Activity Agonist % ACh Max (hM4; [3]) | EC50 (hM4; [4]) | hM4_cAMP Activity PAM % ACh Max (hM4; [5]) | EC50 (hM4; [6]) | inhibition of each target in the LeadProfilingScreen [1] | MDCK-MDR1 ER (MDCK-MDR1) | Papp A→B [2]
1 | [2H]C1([2H])Oc2ccc(OC3CCN(c4nc5nn(C)c(=O)n5cc4C)CC3)cc2OC1([2H])[2H] [Compound A6, 7-(4-((2,3-dihydrobenzo[b][1,4]dioxin-6-yl-2,2,3,3-d4)oxy)piperidin-1-yl)-2,6-dimethyl-[1,2,4]triazolo[4,3-a]pyrimidin-3(2H)-one] | 89 % ACh Max | 16 nM | 70 % ACh Max | 3 nM | – | – | –
2 | [2H]C1([2H])Oc2ccc(OC3CCN(c4nc5nn(C)c(=O)n5c(C)c4C)CC3)cc2OC1([2H])[2H] [Compound A10, 7-(4-((2,3-dihydrobenzo[b][1,4]dioxin-6-yl-2,2,3,3-d4)oxy)piperidin-1-yl)-2,5,6-trimethyl-[1,2,4]triazolo[4,3-a]pyrimidin-3(2H)-one] | 105 % ACh Max | 7 nM | 82 % ACh Max | 2 nM | – | – | –
3 | [2H]C1([2H])Oc2ccc(OC3CCN(c4nc5c(cc4C)C(=O)NC5)CC3)cc2OC1([2H])[2H] [Compound 3, 2-(4-((2,3-dihydrobenzo[b][1,4]dioxin-6-yl-2,2,3,3-d4)oxy)piperidin-1-yl)-3-methyl-6,7-dihydro-5H-pyrrolo[3,4-b]pyridin-5-one] | 106 % ACh Max | 20 nM | 94 % ACh Max | 6 nM | < 50% | 1.3 | 45.5 ×10⁻⁶ cm/s
